Test results from ChEMBL document CHEMBL1124322, “Synthesis and alpha 2-adrenoceptor antagonist activity of some disulfonamidobenzoquinolizines” (J Med Chem, 1989).

What was measured:
[1] = target: Adrenergic receptor alpha (Rattus norvegicus) (UniProt P15823+P23944+P43140+P22086+P19328+P22909); experiment: Ratio of pA2 values at alpha-1 and alpha-2 adrenergic receptors.; format: protein assay
[2] = target: T1, Adrenergic receptor alpha-2 (Rattus norvegicus, UniProt P22086+P19328+P22909); experiment: Antagonism of rat alpha-2 adrenergic receptor from rat vas deferens; format: functional
T1 sequence (P22086 whole entry): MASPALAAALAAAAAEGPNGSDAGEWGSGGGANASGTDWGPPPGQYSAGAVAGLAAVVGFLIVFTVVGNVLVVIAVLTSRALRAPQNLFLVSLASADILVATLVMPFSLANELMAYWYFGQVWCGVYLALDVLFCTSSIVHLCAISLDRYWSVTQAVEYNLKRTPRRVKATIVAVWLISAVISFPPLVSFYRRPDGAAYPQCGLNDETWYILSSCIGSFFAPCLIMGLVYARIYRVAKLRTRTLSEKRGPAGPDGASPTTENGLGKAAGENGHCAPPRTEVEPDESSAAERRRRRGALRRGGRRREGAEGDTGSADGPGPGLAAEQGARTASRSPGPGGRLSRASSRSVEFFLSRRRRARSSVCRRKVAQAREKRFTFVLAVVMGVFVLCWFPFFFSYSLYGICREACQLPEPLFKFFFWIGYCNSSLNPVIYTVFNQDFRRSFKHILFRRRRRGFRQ
T1 sequence (P19328 whole entry): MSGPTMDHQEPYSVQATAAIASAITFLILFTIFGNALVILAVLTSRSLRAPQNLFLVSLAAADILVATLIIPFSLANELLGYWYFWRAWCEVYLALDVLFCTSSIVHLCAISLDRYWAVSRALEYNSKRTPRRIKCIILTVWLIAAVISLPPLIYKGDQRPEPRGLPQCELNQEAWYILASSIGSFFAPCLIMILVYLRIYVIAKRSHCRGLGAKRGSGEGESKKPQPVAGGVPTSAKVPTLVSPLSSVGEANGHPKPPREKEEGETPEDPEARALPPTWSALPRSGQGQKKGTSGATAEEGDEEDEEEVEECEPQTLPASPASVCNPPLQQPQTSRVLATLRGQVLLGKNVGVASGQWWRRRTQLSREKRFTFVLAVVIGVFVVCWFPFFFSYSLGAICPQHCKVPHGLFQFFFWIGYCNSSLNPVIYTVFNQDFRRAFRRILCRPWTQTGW
T1 sequence (P22909 whole entry): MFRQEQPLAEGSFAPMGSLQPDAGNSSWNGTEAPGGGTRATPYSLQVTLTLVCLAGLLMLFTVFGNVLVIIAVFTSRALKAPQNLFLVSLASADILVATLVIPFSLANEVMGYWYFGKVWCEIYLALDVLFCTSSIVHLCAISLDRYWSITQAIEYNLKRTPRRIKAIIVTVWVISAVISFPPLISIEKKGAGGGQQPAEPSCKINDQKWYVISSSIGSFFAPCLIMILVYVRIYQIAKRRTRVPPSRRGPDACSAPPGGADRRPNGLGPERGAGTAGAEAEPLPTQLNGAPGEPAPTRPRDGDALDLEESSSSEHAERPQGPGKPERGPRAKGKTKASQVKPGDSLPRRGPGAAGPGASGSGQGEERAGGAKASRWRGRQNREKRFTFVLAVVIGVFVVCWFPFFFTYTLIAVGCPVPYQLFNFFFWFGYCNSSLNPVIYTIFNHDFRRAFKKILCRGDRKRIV

[3] = target: T2, Adrenergic receptor alpha-1 (Rattus norvegicus, UniProt P15823+P23944+P43140); experiment: Antagonist activity against alpha-1 adrenergic receptor of rat anococcygeus muscle.; format: functional
T2 sequence (P15823 whole entry): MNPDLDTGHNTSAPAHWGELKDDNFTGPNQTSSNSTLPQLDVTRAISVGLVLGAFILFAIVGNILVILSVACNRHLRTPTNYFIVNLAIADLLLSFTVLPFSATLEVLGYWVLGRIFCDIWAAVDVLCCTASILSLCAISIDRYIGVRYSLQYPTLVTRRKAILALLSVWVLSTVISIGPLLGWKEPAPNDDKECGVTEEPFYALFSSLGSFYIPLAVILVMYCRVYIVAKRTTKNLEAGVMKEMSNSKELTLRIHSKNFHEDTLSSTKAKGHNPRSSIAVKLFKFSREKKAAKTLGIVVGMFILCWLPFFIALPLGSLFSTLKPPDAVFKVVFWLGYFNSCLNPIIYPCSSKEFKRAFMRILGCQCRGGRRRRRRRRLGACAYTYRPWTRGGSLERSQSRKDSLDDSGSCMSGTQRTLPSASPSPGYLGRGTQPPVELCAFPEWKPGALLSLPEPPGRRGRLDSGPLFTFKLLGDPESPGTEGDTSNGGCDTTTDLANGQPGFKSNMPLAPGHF
T2 sequence (P23944 whole entry): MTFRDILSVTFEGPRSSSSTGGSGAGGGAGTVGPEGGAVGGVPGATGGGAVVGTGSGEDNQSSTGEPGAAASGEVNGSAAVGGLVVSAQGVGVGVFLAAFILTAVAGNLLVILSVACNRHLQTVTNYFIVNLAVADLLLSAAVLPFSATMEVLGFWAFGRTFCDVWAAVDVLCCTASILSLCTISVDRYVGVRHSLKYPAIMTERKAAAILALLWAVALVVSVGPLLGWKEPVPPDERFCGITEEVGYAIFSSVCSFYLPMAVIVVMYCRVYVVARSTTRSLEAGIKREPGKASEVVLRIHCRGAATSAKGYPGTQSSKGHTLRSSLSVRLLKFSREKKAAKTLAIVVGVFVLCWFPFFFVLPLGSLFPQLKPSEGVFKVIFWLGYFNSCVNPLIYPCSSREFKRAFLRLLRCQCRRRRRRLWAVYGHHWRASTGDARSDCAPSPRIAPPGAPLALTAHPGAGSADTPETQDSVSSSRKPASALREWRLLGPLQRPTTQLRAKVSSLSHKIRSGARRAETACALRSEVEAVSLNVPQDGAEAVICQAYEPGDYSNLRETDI
T2 sequence (P43140 whole entry): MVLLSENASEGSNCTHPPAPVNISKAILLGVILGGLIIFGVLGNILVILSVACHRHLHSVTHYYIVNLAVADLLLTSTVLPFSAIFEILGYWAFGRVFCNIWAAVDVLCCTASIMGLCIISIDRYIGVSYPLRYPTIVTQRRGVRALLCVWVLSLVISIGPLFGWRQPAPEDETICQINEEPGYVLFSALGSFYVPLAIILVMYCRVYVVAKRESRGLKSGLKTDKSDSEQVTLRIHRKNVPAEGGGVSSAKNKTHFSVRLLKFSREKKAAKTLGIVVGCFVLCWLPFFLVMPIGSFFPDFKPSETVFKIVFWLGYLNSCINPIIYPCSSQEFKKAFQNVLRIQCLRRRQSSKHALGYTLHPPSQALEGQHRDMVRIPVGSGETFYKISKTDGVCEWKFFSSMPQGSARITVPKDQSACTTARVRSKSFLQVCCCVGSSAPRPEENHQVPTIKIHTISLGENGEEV

[4] = tested on: Adrenergic receptor alpha (Rattus norvegicus); experiment: Selectivity ratio towards alpha-2 and alpha1 expressed as antilog(alpha-2pA2-alpha-1pA2)
[5] = target: T2, Adrenergic receptor alpha-1; experiment: Antagonist activity against Alpha-1 adrenergic receptor of rat anococcygeus muscle; format: functional
[6] = target: T1, Adrenergic receptor alpha-2; experiment: Antagonist activity against alpha-2 adrenergic receptor of rat vas deferens; format: functional, tissue-based

Ratio [1]	pA2 [2]	pA2 [3]	Ratio [4]	pA2 [5]	pA2 [6]	Compound
120	7.73	5.65				CCS(=O)(=O)NCCN([C@@H]1CCN2CCc3ccccc3[C@@H]2C1)S(C)(=O)=O
	8.1		79	6.2		CS(=O)(=O)N(CCNS(=O)(=O)CCl)[C@@H]1CCN2CCc3ccccc3[C@@H]2C1
1	5.7	5.7				CS(=O)(=O)NCCCN([C@@H]1CCN2CCc3ccccc3[C@@H]2C1)S(C)(=O)=O
310	8.29	5.8				CCCS(=O)(=O)N(CCNS(C)(=O)=O)[C@@H]1CCN2CCc3ccccc3[C@@H]2C1
10	6.7	5.7				CCCS(=O)(=O)NCCN([C@@H]1CCN2CCc3ccccc3[C@@H]2C1)S(C)(=O)=O
	5.66					CS(=O)(=O)NCCCCN([C@@H]1CCN2CCc3ccccc3[C@@H]2C1)S(C)(=O)=O
490	8.34	5.65				CCS(=O)(=O)N(CCNS(C)(=O)=O)[C@@H]1CCN2CCc3ccccc3[C@@H]2C1
410	7.93	5.32				CS(=O)(=O)NCCN([C@@H]1CCN2CCc3ccccc3[C@@H]2C1)S(C)(=O)=O

The remaining lines, values behind:

Compound	Ratio [1]	pA2 [2]	pA2 [3]	Ratio [4]	pA2 [5]	pA2 [6]
CN(CCN([C@@H]1CCN2CCc3ccccc3[C@@H]2C1)S(C)(=O)=O)S(C)(=O)=O	3	6.03	5.5			
CS(=O)(=O)NCCN([C@@H]1CCN2CCc3ccccc3[C@@H]2C1)S(=O)(=O)c1ccc(F)cc1	100	7.7	5.7			
CCCS(=O)(=O)N(CCNS(=O)(=O)CC)[C@@H]1CCN2CCc3ccccc3[C@@H]2C1		8.1				
CS(=O)(=O)NCCN([C@@H]1CCN2CCc3ccccc3[C@@H]2C1)S(=O)(=O)c1ccccc1	91	8.12	6.16			
CC(C)(CN([C@@H]1CCN2CCc3ccccc3[C@@H]2C1)S(C)(=O)=O)NS(C)(=O)=O		6.14				
O=S(=O)(CCl)NCCN([C@@H]1CCN2CCc3ccccc3[C@@H]2C1)S(=O)(=O)CCl		8		47	6.33	
CCS(=O)(=O)NCCN([C@@H]1CCN2CCc3ccccc3[C@@H]2C1)S(=O)(=O)c1ccc(C)cc1		7.62	6.6			
COc1ccc(S(=O)(=O)N(CCNS(C)(=O)=O)[C@@H]2CCN3CCc4ccccc4[C@@H]3C2)cc1	100	8.1	6.1			
CCCS(=O)(=O)N(C)[C@@H]1CCN2CCc3ccccc3[C@@H]2C1	55					
CS(=O)(=O)NCCN([C@@H]1CCN2CCc3ccccc3[C@@H]2C1)S(=O)(=O)c1cccc([N+](=O)[O-])c1	10	7.69	6.7			
CS(=O)(=O)N(CCNS(=O)(=O)C(F)(F)F)[C@@H]1CCN2CCc3ccccc3[C@@H]2C1		6.4				
CS(=O)(=O)N(CCNS(=O)(=O)c1ccccc1)[C@@H]1CCN2CCc3ccccc3[C@@H]2C1	1	5.9	5.9			
CS(=O)(=O)NCCN([C@@H]1CCN2CCc3ccccc3[C@@H]2C1)S(=O)(=O)c1ccc(Cl)cc1						8.04
Cc1cccc(S(=O)(=O)N(CCNS(C)(=O)=O)[C@@H]2CCN3CCc4ccccc4[C@@H]3C2)c1	40	8	6.4			
CCS(=O)(=O)NCCN([C@@H]1CCN2CCc3ccccc3[C@@H]2C1)S(=O)(=O)CC	540	8.27	5.54			
Cc1ccc(S(=O)(=O)N(CCNS(C)(=O)=O)[C@@H]2CCN3CCc4ccccc4[C@@H]3C2)cc1	400	8.4	5.8			
